Measured values as given in patent US20210177982A1, “MUCUS-PENETRATING PEPTIDES, DELIVERY VEHICLES AND METHODS OF THERAPY” (DNALite Therapeutics, Inc., priority 2018, published 2021).

Columns and labels:
[1] = pH 7 (No salt); cited from earlier work
[2] = 25° C., RP-HPLC, Ac-X-G-A-K-G-A-G-V-G L-amide; cited from earlier work
[3] = In-vivo distribution assay (intrarectal, colon cryosections, epifluorescence); parameters: species or system BALB/c female mice; details: peptide-coupled DiI/DiO lipid nanoparticle, 30 μg DNA intrarectally, colon after 4 hours, compared to base lipid nanoparticle
Method: Three separate lipid nanoparticle formulations were prepared, one coupled to SEQ ID NO: 29, another coupled to transactivator of transcription peptide (TAT; SEQ ID NO:37) and the last without any coupling, all carried plasmid DNA and included 0.5% mol DiI and DiO labeling. 30 μg of DNA encapsulated in the DiI/DiO lipid nanoparticle are dosed intrarectally in BALB/c female mice (Charles River Laboratory, MA) anesthetized under 1-3% isofluorane. After 4 hours, the mice are euthanized under 25% CO2 and the colon is removed and embedded in optimal cutting temperature (OCT) media. The OCT media sections are flash frozen at −80 degrees Celsius and intestinal sections are taken in a cryostat. Epifluorescence images are taken of crypts under 531 nm excitation with 593 nm emission and overlaid with brightfield illumination. FIGS. 32A-32B.

Poliovirus Receptor = target: T1, Poliovirus Receptor (Homo sapiens, UniProt P15151); details: cited from earlier work
T1 sequence (P15151 21-417): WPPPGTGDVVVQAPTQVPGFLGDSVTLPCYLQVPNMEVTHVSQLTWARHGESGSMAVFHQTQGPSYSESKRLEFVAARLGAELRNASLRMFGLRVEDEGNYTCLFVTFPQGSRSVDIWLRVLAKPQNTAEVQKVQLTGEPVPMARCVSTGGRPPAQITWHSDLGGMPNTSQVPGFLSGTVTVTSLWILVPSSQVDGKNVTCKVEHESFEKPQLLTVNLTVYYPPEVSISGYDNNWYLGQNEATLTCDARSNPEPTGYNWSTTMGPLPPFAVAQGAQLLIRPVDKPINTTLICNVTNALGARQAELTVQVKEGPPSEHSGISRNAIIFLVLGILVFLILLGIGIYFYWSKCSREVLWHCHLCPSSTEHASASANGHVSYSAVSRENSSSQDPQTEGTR

Molecule	Fauchere Score [1]	ΔtR(Gly), pH 2, 20 mM H3PO4 [2]	ΔtR(Gly), pH 2, 20 mM TFA [2]	ΔtR(Gly), pH 5, 10 mM PO4 Buffer [2]	ΔtR(Gly), pH 7, 10 mM PO4 Buffer +50 mM NaCl [2]	ΔtR(Gly), pH 7, 10 mM PO4 Buffer +50 mM NaClO4 [2]	ΔtR(Gly), pH 7, 10 mM PO4 Buffer, No Salt [2]	distribution of the particle at the surface of the intestinal epithelial cells [3]	interaction with the Poliovirus Receptor (Poliovirus Receptor)
O=C(O)[C@@H]1CCCN1 [Pro]	0.720	9.4	9.0	9.4	10.4	9.9	9.7		
C[C@@H](O)[C@H](N)C(=O)O [Thr]	0.260	2.8	2.3	2.8	4.1	2.5	3.9		
N[C@@H](Cc1c[nH]c2ccccc12)C(=O)O [Trp]	2.250	32.3	32.4	33.2	33.0	33.7	32.9		
N[C@@H](Cc1ccc(O)cc1)C(=O)O [Tyr]	0.960	15.4	14.7	15.2	16.0	15.1	15.4		
CC(C)[C@H](N)C(=O)O [Val]	1.220	13.8	13.4	14.0	15.0	14.6	14.4		
GRKKRRQRRRPQ (Human immunodeficiency virus) [SEQ ID NO. 37]								reduced the distribution of the particle at the surface of the intestinal epithelial cells	
TVDNPASTTNKDKLFAV [SEQ ID NO. 28]									has been shown to interact with the Poliovirus Receptor
